Results published in ChEMBL document CHEMBL3832077, “DailyMed|setid=dc3d3905-2f08-4b71-b949-53f49fb3ea10 | METRONIDAZOLE- metronidazole tablet|Lake Erie Medical DBA Quality Care Products LLC”.

Columns and labels:
[1] = (§1) Evaluation of pharmacokinetic parameters for Metronidazole following oral administration of Metronidazole tablets; assay type: ADME, organism-based; parameters: dose 250 mg, dose 2000 mg, dose 500 mg, route oral; conditions: human, in vivo, dosed compound id 31, dosed compound name METRONIDAZOLE, tissue Plasma
[2] = system: Homo sapiens; assay: as §1; assay type: ADME, organism-based; parameters: dose 250 mg, dose 2000 mg, dose 500 mg, route oral; conditions: in vivo, po, dosed compound id 31, dosed compound name METRONIDAZOLE, tissue Plasma

Tmax [1]: 1 to 2 h
CL_renal [2]: 10 mL/min/1.73 m2
SMILES: Cc1ncc([N+](=O)[O-])n1CCO [METRONIDAZOLE]
